According to patent US20050014849A1, “Antifungal phenylethylene” (priority 2001, published 2005):
Converted amounts (≈) assume the structure as drawn. “And” between values parts separate entries of the source, which are not always exact repeats. Identical values can stand only once. “Also recorded” adds a separate entry of the source.

How the values were obtained:
C. neoformans ATCC 90112 = assay: Broth macrodilution MIC/MFC; type: cell-based, Cryptococcus neoformans; conditions: for MFC / MIC: Cryptococcus neoformans
Method: (§1) TMPN was screened against yeasts by the broth macrodilution assay according to the NCCLS [7]. Yeasts were suspended and diluted as recommended to yield final inocula ranging from 0.5-2.5×10^3 cfu/ml. Tests were performed in sterile 12 by 75 mm plastic tubes containing two-fold dilutions of TMPN in 0.165 M morpholinepropanesulfonic acid buffered RPMI 1640 medium (pH 7.0). One tube was again left drug free (but contained an equivalent volume of DMSO) for a turbidity control. Tubes were incubated without agitation at the appropriate temperature (see Fungal Strains section above). MICs were determined after 72 h for Cryptococcus and after 48 h for other yeast genera. The MIC was defined as the lowest concentration of TMPN that inhibited all visible growth of the test organism (optically clear).
(§2) Minimum fungicidal concentrations (MFCs) were determined by subculturing 0.1 ml from each tube with no visible growth in the MIC broth macrodilution series onto the appropriate drug-free plates (see Fungal Strains section above).
(§3) Possible host effects were also evaluated. Broth macrodilution assays were performed with RPMI medium prepared at pH 5, pH 6, and pH 7, and in RPMI medium with and without 50% normal human serum (Lampire Biological Labs). The pH experiments were performed twice on separate days.

bovine brain tubulin = system: T1, bovine brain tubulin; assay: Tubulin polymerization assay; type: biochemical; conditions: 1 mg/ml tubulin; 20 min incubation at 30° C.
T1 construct: Electrophoretically homogeneous bovine brain tubulin [12]
Method: Electrophoretically homogeneous bovine brain tubulin [12] was used in studies to evaluate the effects of TMPN on in vitro tubulin polymerization and the binding of […] (Dupont-NEN) to tubulin. These studies were performed as described previously. In the polymerization assay, varying drug concentrations were added to 1 mg/ml tubulin to determine the amount of drug that would inhibit the extent of the reaction by 50% (20 min incubation at 30° C.) (IC50 value). In the colchicine binding assay, the effect of varying drug concentrations on the binding of 2 μg/ml colchicine to 100 μg/ml tubulin was measured after 10 min at 37° C. (control reaction about 50% complete).

C. albicans (ATCC 90028) = assay: Frequency of occurrence of spontaneous mutants; type: cell-based, Candida albicans; conditions: four times the broth macrodilution MIC
Method: (§4) Determination of the frequency of occurrence of spontaneous mutants was performed as previously described. Overnight cultures of C neoformans (ATCC 90112), C. albicans (ATCC 90028) and Trichosporon inkin (ATCC 18020) were diluted to an OD530 nm=0.3. 0.1 ml of each preparation was spread onto SDA plates containing four or eight times the broth macrodilution MIC of TMPN. The starting inoculum for each organism was also diluted and plated onto drug-free SDA plates for determination of cfu/ml. After a 48 h incubation at the appropriate temperature (see Fungal Strains section above), the number of colonies on drug-supplemented SDA was counted. The frequency of occurrence of spontaneous mutants was calculated by dividing the number of colonies on drug-containing plates by the number of colonies in the inoculum. When no colonies were visualized on drug-containing plates, the calculation was (<) 1 colony divided by the number of colonies in the inoculum.

C. albidus ATCC 66030 = assay: Broth macrodilution MIC/MFC; type: cell-based, Cryptococcus albidus
Method: as §1, §2

C. albidus ATCC 34140 = assay: Broth macrodilution MIC/MFC; type: cell-based, Cryptococcus albidus
Method: as §1, §2

all bacteria = assay: NCCLS broth macrodilution assay, antibacterial; type: cell-based; conditions: Neisseria gonorrhoeae; all bacteria (single exception N. gonorrhoeae)
Method: (§5) The antibacterial activity of TMPN was also assessed by the NCCLS broth macrodilution assay. Isolated colonies from overnight cultures were suspended and diluted as recommended to yield final inocula of approximately 5×10^5 cfu/ml. Tests were performed in sterile plastic tubes (12 by 75 mm) containing twofold dilutions of TMPN in gonococcal typing broth (Neisseria), Mueller Hinton II (MHII) (cation adjusted) broth containing 3% lysed horse blood (Streptococcus) or MHII broth (all other bacteria). One tube was left drug-free (but contained an equivalent volume of DMSO) for a turbidity control. Tubes were incubated without agitation at 37° C. with 5% CO2 (Streptococcus, Neisseria), or at 35° C. (remaining bacteria). MICs were determined after 24 h for all bacteria except Micrococcus, which was read at 48 h. The MIC was defined as the lowest concentration of drug that inhibited all visible growth of the test organism (optically clear).

N. gonorrhoeae = assay: NCCLS broth macrodilution assay, antibacterial; type: cell-based; conditions: Neisseria gonorrhoeae
Method: as §5

T. inkin (ATCC 18020) = assay: Frequency of occurrence of spontaneous mutants; type: cell-based, Trichosporon inkin; conditions: four times the broth macrodilution MIC
Method: as §4

[1] = system: 132 reference strains and clinical isolates; assay: Broth macrodilution MIC/MFC, all fungi tested (summary); type: cell-based
Method: as §1
Susceptibility testing of filamentous fungi was also conducted. Broth macrodilution susceptibility testing of P. lilacinus, Rhizopus spp. and Aspergillus spp. was performed in accordance with a proposed standardized procedure with slight modification. To induce conidium and sporangiospore formation, fungi were grown on PDA slants at 35° C. for 6 days (P. lilacinus, Rhizopus spp., all Aspergillus species except A. nidulans) or 3 days (A. nidulans). Fungal slants were covered with sterile 0.85% NaCl (P. lilacinus, Rhizopus spp., all Aspergillus species except A. nidulans) or 0.05% Tween 80 (A. nidulans), and suspensions were made by gently probing the colonies with the tip of a sterile Pasteur pipette. The resulting mixture of hyphal fragments and conidia or sporangiospores was withdrawn and transferred to a sterile clear microcentrifuge tube, and heavy particles were allowed to settle for 10 min. The upper homogenous suspension was transferred to a sterile microcentrifuge tube, vortexed for 15 s, adjusted spectrophotometrically, and diluted in sterile 0.165 M MOPS-buffered RPMI medium, pH 7.0, to yield final inocula ranging from 0.5-2.5×10^3 cfu/ml. Susceptibility to TMPN was then determined by broth macrodilution as described above for yeast isolates. MICs were read after 48 h The MIC was defined as the lowest concentration of TMPN that inhibited all visible growth of the test organism (optically clear).
as §2, §3

[2] = ATCC90112, Cryptococcus neoformans ATCC 90112, 20 μg/ml bovine serum albumin
[3] = ATCC90112, Cryptococcus neoformans ATCC 90112, 40 μg/ml bovine serum albumin
[4] = ATCC90112, Cryptococcus neoformans ATCC 90112, no bovine serum albumin
[5] = ATCC90112, Cryptococcus neoformans ATCC 90112, no serum
[6] = ATCC90112, pH 5, Cryptococcus neoformans ATCC 90112, pH 5
[7] = ATCC90112, pH 5, Cryptococcus neoformans ATCC 90112, pH 5, repeat experiment
[8] = ATCC90112, pH 6, Cryptococcus neoformans ATCC 90112, pH 6
[9] = ATCC90112, pH 6, Cryptococcus neoformans ATCC 90112, pH 6, repeat experiment
[10] = ATCC90112, pH 7, Cryptococcus neoformans ATCC 90112, pH 7
[11] = ATCC90112, pH 7, Cryptococcus neoformans ATCC 90112, pH 7, repeat experiment

For `COc1cc(C=C[N+](=O)[O-])cc(OC)c1OC` [TMPN, 1-(3′,4′,5′-trimethoxyphenyl)-2-nitro-ethylene], the “MFC Range” value (C. neoformans ATCC 90112; C. neoformans ATCC 90112) was 4 µg/mL (≈ 16.7 µM), the “MIC Range” value (C. neoformans ATCC 90112; C. neoformans ATCC 90112) was 2 µg/mL (≈ 8.36 µM) and the MFC (C. neoformans ATCC 90112; [2]) was 4 µg/mL (≈ 16.7 µM). It also gave an MIC (C. neoformans ATCC 90112; [2]) of 4 µg/mL (≈ 16.7 µM), an MFC (C. neoformans ATCC 90112; [3]) of 4 µg/mL (≈ 16.7 µM) and an MIC (C. neoformans ATCC 90112; [3]) of 4 µg/mL (≈ 16.7 µM). For the same compound, the MIC (C. neoformans ATCC 90112; ATCC90112, Cryptococcus neoformans ATCC 90112, 50% human serum) was greater than 64 µg/mL, the MFC (C. neoformans ATCC 90112; [4]) was 4 µg/mL (≈ 16.7 µM) and the MIC (C. neoformans ATCC 90112; [4]) was 2 µg/mL (≈ 8.36 µM). It also gave an MFC (C. neoformans ATCC 90112; [5]) of 4 µg/mL (≈ 16.7 µM), an MIC (C. neoformans ATCC 90112; [5]) of 2 µg/mL (≈ 8.36 µM) and an MFC (C. neoformans ATCC 90112; [6]) of 4 µg/mL (≈ 16.7 µM). The MIC (C. neoformans ATCC 90112; [6]) was 2 µg/mL (≈ 8.36 µM), the MFC (C. neoformans ATCC 90112; [7]) was 2 µg/mL (≈ 8.36 µM) and the MIC (C. neoformans ATCC 90112; [7]) was 1 µg/mL (≈ 4.18 µM). It also gave an MFC (C. neoformans ATCC 90112; [8]) of 4 µg/mL (≈ 16.7 µM), an MIC (C. neoformans ATCC 90112; [8]) of 4 µg/mL (≈ 16.7 µM) and an MFC (C. neoformans ATCC 90112; [9]) of 4 µg/mL (≈ 16.7 µM). For the same compound, the MIC (C. neoformans ATCC 90112; [9]) was 4 µg/mL (≈ 16.7 µM), the MFC (C. neoformans ATCC 90112; [10]) was 4 µg/mL (≈ 16.7 µM) and the MIC (C. neoformans ATCC 90112; [10]) was 2 µg/mL (≈ 8.36 µM). The MFC (C. neoformans ATCC 90112; [11]) was 4 µg/mL (≈ 16.7 µM), the MIC (C. neoformans ATCC 90112; [11]) was 2 µg/mL (≈ 8.36 µM) and the “IC50 for inhibition of the extent of tubulin assembly” value (bovine brain tubulin) was 0.60 µg/mL and 0.60 ± 0.07 µg/mL. The “frequency of occurrence of single-step resistant mutants” value (C. albicans (ATCC 90028)) was ≤ 10^−6, the “MFC Range” value (C. albidus ATCC 66030) was 16 µg/mL (≈ 66.9 µM) and the “MIC Range” value (C. albidus ATCC 66030) was 8 µg/mL (≈ 33.4 µM). The “MFC Range” value (C. albidus ATCC 34140) was 32 µg/mL (≈ 134 µM), the “MIC Range” value (C. albidus ATCC 34140) was 32 µg/mL (≈ 134 µM) and the MIC (all bacteria) was greater than 64 µg/mL. The MIC (N. gonorrhoeae) was 4 µg/mL (≈ 16.7 µM), the “frequency of occurrence of single-step resistant mutants” value (T. inkin (ATCC 18020)) was ≤ 10^−6 and the “antifungal spectrum in broth macrodilution assays” value [1] was “broad-spectrum antifungal activity”. The “activity in the presence of serum” value ([1]; 50% human serum) was “not active against all species”, the fungicidal action ([1]; 132 reference strains and clinical isolates, incl. those resistant to fluconazole, ketoconazole, amphotericin B or flucytosine) was “fungicidal for the majority” and the “effect of media pH on activity (MICs and MFCs)” value ([1]; pH 5, pH 6 and pH 7) was “unaffected; also recorded: identical or differed by no more than a single 2-fold dilution”.
